According to ChEMBL document CHEMBL3832022, “DailyMed|setid=50ee3815-7675-4bc0-a88a-ab3886aea795 | ESTRING - estradiol ring|Physicians Total Care, Inc”:

Tests used:
Homo sapiens = species: Homo sapiens; experiment: (§1) Mean steady-state pharmacokinetic parameters for Estradiol evaluated after a single dose of 2 mg of Estradiol as estridiol vaginal ring; type: ADME, organism-based; design: dose 2 mg, route vaginal; conditions: in vivo, other, dosed compound id 17, dosed compound name ESTRADIOL, gender female, regimen Single dose, sampling time1 12 weeks, tissue Serum
[1] = as §1; type: ADME, organism-based; design: dose 2 mg, route vaginal; conditions: human, in vivo, dosed compound id 17, dosed compound name ESTRADIOL, gender female, regimen Single dose, sampling time1 12 weeks, tissue Serum

C[C@]12CC[C@@H]3c4ccc(O)cc4CC[C@H]3[C@@H]1CC[C@@H]2O [ESTRADIOL]
Cmax (Homo sapiens): 0.0556 ng/mL | Cmax ([1]; 2 mg): 0.0632 ng/mL | Tmax ([1]; dose 2 mg, route vaginal): 30 to 60 min | concentration at 12 weeks ([1]; dose 2 mg, route vaginal, read-out: Css-12w): 0.008 ng/mL
